From the supplement of paper PMC8671470

Tested on: SHI-1
Conditions: 72 h
Outline: (§1)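 Each of fifteen myeloid leukaemia cell lines was seeded in RPMI 1640 at a density titrated to its linear growth range. The cells were incubated for 72 h at 37 °C and 5% CO2 with compounds at five tenfold doses from 1 to 10,000 nM, in duplicate. After ATP luminescence was normalised to vehicle and to a positive control at 10 µM, four-parameter log-logistic curves were fitted. These curves gave the IC50.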

Structure (SMILES) | IC50 (cell viability) [µM]
Cc1c(Cl)cccc1S(=O)(=O)Nc1nc(CC(=O)N2CCN(C)CC2)cs1 [BVT-2733] | > 10
CCc1oc2ccccc2c1C(=O)c1cc(Br)c(O)c(Br)c1 [Benzbromarone] | > 10
CCOC(=O)c1sc(NC(=O)c2ccco2)c(SC#N)c1C [CBR-5884] | > 10
O=C(/C=C/c1ccc(O)c(O)c1)OCCc1ccccc1 [Caffeic acid phenethyl ester] | > 10
CCCCCOC(=O)Nc1nc(=O)n([C@@H]2O[C@H](C)[C@@H](O)[C@H]2O)cc1F [Capecitabine] | > 10
Cc1ccc(-c2cc(C(F)(F)F)nn2-c2ccc(S(N)(=O)=O)cc2)cc1 [Celecoxib] | > 10
O=c1c(-c2ccc(O)cc2)coc2cc(O[C@@H]3O[C@H](CO)[C@@H](O)[C@H](O)[C@H]3O)ccc12 [Daidzin] | > 10
CCN(CC)C(=S)SSC(=S)N(CC)CC [Disulfiram] | 0.0728
c1cc(-c2cnn3cc(-c4ccc(OCCN5CCCCC5)cc4)cnc23)ccn1 [Dorsomorphin] | > 10
C[C@H]1c2cccc(O)c2C(=O)C2C(=O)[C@]3(O)C(=O)C(C(N)=O)C(=O)[C@@H](N(C)C)[C@@H]3[C@@H](O)[C@@H]21 (some centres undefined) [Doxycycline] | > 10

Tested on: KU-812
Conditions: 72 h
Outline: as §1

Structure (SMILES) | IC50 (cell viability) [µM]
Cc1c(Cl)cccc1S(=O)(=O)Nc1nc(CC(=O)N2CCN(C)CC2)cs1 [BVT-2733] | > 10
CCc1oc2ccccc2c1C(=O)c1cc(Br)c(O)c(Br)c1 [Benzbromarone] | > 10
CCOC(=O)c1sc(NC(=O)c2ccco2)c(SC#N)c1C [CBR-5884] | > 10
O=C(/C=C/c1ccc(O)c(O)c1)OCCc1ccccc1 [Caffeic acid phenethyl ester] | 0.649
CCCCCOC(=O)Nc1nc(=O)n([C@@H]2O[C@H](C)[C@@H](O)[C@H]2O)cc1F [Capecitabine] | > 10
Cc1ccc(-c2cc(C(F)(F)F)nn2-c2ccc(S(N)(=O)=O)cc2)cc1 [Celecoxib] | > 10
O=c1c(-c2ccc(O)cc2)coc2cc(O[C@@H]3O[C@H](CO)[C@@H](O)[C@H](O)[C@H]3O)ccc12 [Daidzin] | > 10
CCN(CC)C(=S)SSC(=S)N(CC)CC [Disulfiram] | > 10
c1cc(-c2cnn3cc(-c4ccc(OCCN5CCCCC5)cc4)cnc23)ccn1 [Dorsomorphin] | 2.6
C[C@H]1c2cccc(O)c2C(=O)C2C(=O)[C@]3(O)C(=O)C(C(N)=O)C(=O)[C@@H](N(C)C)[C@@H]3[C@@H](O)[C@@H]21 (some centres undefined) [Doxycycline] | > 10

Tested on: MV4-11
Conditions: 72 h
Outline: as §1

Structure (SMILES) | IC50 (cell viability) [µM]
Cc1c(Cl)cccc1S(=O)(=O)Nc1nc(CC(=O)N2CCN(C)CC2)cs1 [BVT-2733] | > 10
CCc1oc2ccccc2c1C(=O)c1cc(Br)c(O)c(Br)c1 [Benzbromarone] | > 10
CCOC(=O)c1sc(NC(=O)c2ccco2)c(SC#N)c1C [CBR-5884] | 7.25
O=C(/C=C/c1ccc(O)c(O)c1)OCCc1ccccc1 [Caffeic acid phenethyl ester] | 1.39
CCCCCOC(=O)Nc1nc(=O)n([C@@H]2O[C@H](C)[C@@H](O)[C@H]2O)cc1F [Capecitabine] | > 10
Cc1ccc(-c2cc(C(F)(F)F)nn2-c2ccc(S(N)(=O)=O)cc2)cc1 [Celecoxib] | > 10
O=c1c(-c2ccc(O)cc2)coc2cc(O[C@@H]3O[C@H](CO)[C@@H](O)[C@H](O)[C@H]3O)ccc12 [Daidzin] | > 10
CCN(CC)C(=S)SSC(=S)N(CC)CC [Disulfiram] | 7.02
c1cc(-c2cnn3cc(-c4ccc(OCCN5CCCCC5)cc4)cnc23)ccn1 [Dorsomorphin] | > 10
C[C@H]1c2cccc(O)c2C(=O)C2C(=O)[C@]3(O)C(=O)C(C(N)=O)C(=O)[C@@H](N(C)C)[C@@H]3[C@@H](O)[C@@H]21 (some centres undefined) [Doxycycline] | > 10

Tested on: K-562
Conditions: 72 h
Outline: as §1

Structure (SMILES) | IC50 (cell viability) [µM]
Cc1c(Cl)cccc1S(=O)(=O)Nc1nc(CC(=O)N2CCN(C)CC2)cs1 [BVT-2733] | > 10
CCc1oc2ccccc2c1C(=O)c1cc(Br)c(O)c(Br)c1 [Benzbromarone] | > 10
CCOC(=O)c1sc(NC(=O)c2ccco2)c(SC#N)c1C [CBR-5884] | > 10
O=C(/C=C/c1ccc(O)c(O)c1)OCCc1ccccc1 [Caffeic acid phenethyl ester] | > 10
CCCCCOC(=O)Nc1nc(=O)n([C@@H]2O[C@H](C)[C@@H](O)[C@H]2O)cc1F [Capecitabine] | > 10
Cc1ccc(-c2cc(C(F)(F)F)nn2-c2ccc(S(N)(=O)=O)cc2)cc1 [Celecoxib] | > 10
O=c1c(-c2ccc(O)cc2)coc2cc(O[C@@H]3O[C@H](CO)[C@@H](O)[C@H](O)[C@H]3O)ccc12 [Daidzin] | > 10
CCN(CC)C(=S)SSC(=S)N(CC)CC [Disulfiram] | 0.447
c1cc(-c2cnn3cc(-c4ccc(OCCN5CCCCC5)cc4)cnc23)ccn1 [Dorsomorphin] | > 10
C[C@H]1c2cccc(O)c2C(=O)C2C(=O)[C@]3(O)C(=O)C(C(N)=O)C(=O)[C@@H](N(C)C)[C@@H]3[C@@H](O)[C@@H]21 (some centres undefined) [Doxycycline] | 9.29

Tested on: BV-173
Conditions: 72 h
Outline: as §1

Structure (SMILES) | IC50 (cell viability) [µM]
Cc1c(Cl)cccc1S(=O)(=O)Nc1nc(CC(=O)N2CCN(C)CC2)cs1 [BVT-2733] | > 10
CCc1oc2ccccc2c1C(=O)c1cc(Br)c(O)c(Br)c1 [Benzbromarone] | > 10
CCOC(=O)c1sc(NC(=O)c2ccco2)c(SC#N)c1C [CBR-5884] | > 10
O=C(/C=C/c1ccc(O)c(O)c1)OCCc1ccccc1 [Caffeic acid phenethyl ester] | 0.664
CCCCCOC(=O)Nc1nc(=O)n([C@@H]2O[C@H](C)[C@@H](O)[C@H]2O)cc1F [Capecitabine] | > 10
Cc1ccc(-c2cc(C(F)(F)F)nn2-c2ccc(S(N)(=O)=O)cc2)cc1 [Celecoxib] | > 10
O=c1c(-c2ccc(O)cc2)coc2cc(O[C@@H]3O[C@H](CO)[C@@H](O)[C@H](O)[C@H]3O)ccc12 [Daidzin] | > 10
CCN(CC)C(=S)SSC(=S)N(CC)CC [Disulfiram] | 0.778
c1cc(-c2cnn3cc(-c4ccc(OCCN5CCCCC5)cc4)cnc23)ccn1 [Dorsomorphin] | 7.28
C[C@H]1c2cccc(O)c2C(=O)C2C(=O)[C@]3(O)C(=O)C(C(N)=O)C(=O)[C@@H](N(C)C)[C@@H]3[C@@H](O)[C@@H]21 (some centres undefined) [Doxycycline] | > 10

Tested on: MOLM-13
Conditions: 72 h
Outline: as §1

Structure (SMILES) | IC50 (cell viability) [µM]
Cc1c(Cl)cccc1S(=O)(=O)Nc1nc(CC(=O)N2CCN(C)CC2)cs1 [BVT-2733] | > 10
CCc1oc2ccccc2c1C(=O)c1cc(Br)c(O)c(Br)c1 [Benzbromarone] | > 10
CCOC(=O)c1sc(NC(=O)c2ccco2)c(SC#N)c1C [CBR-5884] | > 10
O=C(/C=C/c1ccc(O)c(O)c1)OCCc1ccccc1 [Caffeic acid phenethyl ester] | > 10
CCCCCOC(=O)Nc1nc(=O)n([C@@H]2O[C@H](C)[C@@H](O)[C@H]2O)cc1F [Capecitabine] | > 10
Cc1ccc(-c2cc(C(F)(F)F)nn2-c2ccc(S(N)(=O)=O)cc2)cc1 [Celecoxib] | > 10
O=c1c(-c2ccc(O)cc2)coc2cc(O[C@@H]3O[C@H](CO)[C@@H](O)[C@H](O)[C@H]3O)ccc12 [Daidzin] | > 10
CCN(CC)C(=S)SSC(=S)N(CC)CC [Disulfiram] | > 10
c1cc(-c2cnn3cc(-c4ccc(OCCN5CCCCC5)cc4)cnc23)ccn1 [Dorsomorphin] | > 10
